This note sets out measurements from patent US10059950B2, “Compositions comprising an internalizing nucleic acid molecule, and their methods of use” (B3 BIO, INC., priority 2012, dated 2018).

In the oligonucleotide strings, read from the 5' end, every base follows the letter of its sugar. An asterisk marks phosphorothioate; unmarked linkages are phosphodiester. Other units and linkages are bracketed, terminal groups are in braces. A string of capitals states the bases alone. r = 2'-OH (RNA); f = 2'-fluoro

The test system of data set [1] is human prostate cancer cell line PC-3. The experiment in a line: Flow cytometric-based screening assay for internalization in PC-3 cells. Type of data set: cell-based. The method, then:
In illustrating a screening process for internalization, from clones selected for further analysis from the selection process, a flow cytometric-based assay for binding and/or internalization was utilized. Typically, the assay was performed by incubating 200 nM of each clone with 5×10^5 target cells in 100 ul PBS containing 0.5% bovine serum albumin (BSA) in a 13 mm tube for 2 hours @ 37° C. A first portion of the cells was then treated with RNAse to remove any of the clone remaining bound to the surface of the cells, so as to allow detection and quantitation of internalized clone (i.e., measuring internalization). In parallel, a second portion of the cells was treated with PBS containing 0.5% BSA (lacking added RNase activity to enzymatically cleave […]), so as to allow detection and quantitation of clone remaining bound to the cell surface, as well as internalized clone (i.e., measuring binding and internalization). Following further washes with phosphate-buffered saline, the cells were fixed in 1% formaldehyde and then subjected to analysis on a flow cytometer using commercially available analysis software. In performing analyses by flow cytometry, several assay controls were used. As an assay control representing either no or background (e.g., non-specific) internalization, an RNA molecule resulting from a selection process for binding a molecule not detectably expressed on target cells was used. The assay control RNA molecule was further modified with Alexa 647, and then used for further characterization of clones from the selection process described herein. For ease of description and reference for this Example, this assay control RNA molecule is referred to herein as Negative Control 1 (see, e.g., Table 5). As an additional assay control that represents either no or background internalization, used was an RNA molecule from the starting library which was chosen from the library prior to beginning a selection method described herein, and that was further modified with Alexa 647. This assay control RNA molecule is referred to herein as Negative Control 2 (see, e.g., Tables 5, 7, and 8). Additionally, fluorescence of unstained cells was measured, as a control, to quantitate any background fluorescent properties of the cells themselves as encountered in analyses by flow cytometry (“Unstained”), as opposed to fluorescent signal mediated by the RNA molecules further modified to include Alexa 647. Shown in Table 5 are the results of analyses by flow cytometry in which measured and quantitated was the ability of clones, selected on the basis of sequence convergence, to internalize into target cells represented by human prostate cancer cell line PC-3. The units of fluorescence in Table 5 represent mean fluorescence (“Mean”). The fold increase (determined by dividing the mean fluorescence of a clone by the mean fluorescence of unstained cells) is an indicator of the ability of a clone, or a clone which has been further modified to include an effector moiety, to internalize into the target cells (Table 5; “Fold Increase”).
The truncations, illustrated in Table 6, were each further modified with a detectable moiety, Alexa 647, and analyzed by a flow cytometric-based screening assay for internalization using the methods outlined in Example 2, to determine minimal sequences that maintain the full ability to internalize into human prostate cancer cells. Shown in Table 7 are the results of analyses by flow cytometry in which measured and quantitated was the ability of each truncation to internalize into target cells represented by human prostate cancer cell line PC-3. The units of fluorescence in Table 7 represent mean fluorescence intensity (“Mean”). […]
(In general: A flow cytometer gives signals particle by particle.)

Data set [2] has as its system A549 human lung adenocarcinoma. The experiment in a line: Flow cytometric binding and internalization assay, A549. Type of data set: cell-based. The conditions noted are these: A549, malignant. Here is the method: (§1) In illustrating a screening process for internalization, from clones selected for further analysis from the selection process, a flow cytometric-based assay for binding and/or internalization was utilized. Typically, the assay was performed by incubating 200 nM of each clone with 5×10^5 target cells in 100 ul PBS containing 0.5% bovine serum albumin (BSA) in a 13 mm tube for 2 hours @ 37° C. A first portion of the cells was then treated with RNAse to remove any of the clone remaining bound to the surface of the cells, so as to allow detection and quantitation of internalized clone (i.e., measuring internalization). In parallel, a second portion of the cells was treated with PBS containing 0.5% BSA (lacking added RNase activity to enzymatically cleave […]), so as to allow detection and quantitation of clone remaining bound to the cell surface, as well as internalized clone (i.e., measuring binding and internalization). […] Additionally, fluorescence of unstained cells was measured, as a control, to quantitate any background fluorescent properties of the cells themselves as encountered in analyses by flow cytometry (“Unstained”), as opposed to fluorescent signal mediated by the RNA molecules further modified to include Alexa 647. […] The units of fluorescence in Table 5 represent mean fluorescence (“Mean”). […]

The subject of data set [3] is K562 human chronic myelogenous leukemia. The experiment in a line: Flow cytometric binding and internalization assay, K562. Type of data set: cell-based. The conditions noted are these: K562, malignant. Here is the method: as §1
The test system of data set [4] is PrEC human primary prostate epithelial cells. Kind of data set: Flow cytometric binding and internalization assay, PrEC. The settings on record: nonmalignant. Type of data set: cell-based. The method, then: as §1
In data set [5] the test system is MCF7 human breast adenocarcinoma. The experiment in a line: Flow cytometric binding and internalization assay, MCF7. Type of data set: cell-based. The conditions noted are these: MCF7, malignant. Here is the method: as §1
In data set [6] the test system is WIL-2 B lymphoblastoid cell line transformed with Epstein Barr virus. Kind of data set: Flow cytometric binding and internalization assay, WIL-2. The format is cell-based, human. The conditions noted are these: WIL-2, transformed cells. Here is the method:
as §1

The mark [7] stands for this setting: Table 7, truncations modified with Alexa 647, PC-3.
[8] abbreviates: Table 8, mutants of E3-45, PC-3.

“GGGAGGCUGGGCUUUCGGCAAC (rGrGrGrArGrGfCfUrGrGrGfCfUfUfUfCrGrGfCrArAfC; aptamer; Alexa 647 label attached, position not given here, further chemistry not fully specified) [E3-22, truncation of iNA E3, 22 bases]”: in data set [1] (setting [7]), the “Fold increase (mean fluorescence intensity / unstained cells)” value came to 1.0 and the “Mean (mean fluorescence intensity)” value is listed as 80.7.
As to “mutant 3: mutant of E3-45 with the conserved motif UUUCGG mutated in a loop portion (GGGUGCGGUACUUUCGGGCUAAAGGCAACAUCAGCCCCUCAGGACG; aptamer; listed as RNA, chemistry not fully specified)”, the “ability to bind and internalize as compared to wildtype iNA (E3-45)” value (from here on “ability … compared to wildtype iNA (E3-45)”) in data set [1] (PC-3, in words) was “loss of the ability to bind and internalize”. Besides, in data set [1] (setting [8]), the “Fold increase (mean fluorescence intensity / unstained cells)” value amounted to 1.6 and the “Mean (mean fluorescence intensity)” value stood at 142.
“GGGAGGCUUUCGGGCUUUCGGCAACAUCAGCC (rGrGrGrArGrGfCfUfUfUfCrGrGrGfCfUfUfUfCrGrGfCrArAfCrAfUfCrArGfCfC; aptamer; Alexa 647 label attached, position not given here, further chemistry not fully specified) [E3-32, truncation of iNA E3, 32 bases]”: in data set [1] (setting [7]), the “Fold increase (mean fluorescence intensity / unstained cells)” value is listed as 11.8 and the “Mean (mean fluorescence intensity)” value is listed as 944.
“mutant 1: assay control mutant of E3-45, mutation in a loop not containing the conserved motif UUUCGG (GGGUGCGAAACUUUCGGGCUUUCGGCAACAUCAGCCCCUCAGACCG; listed as RNA, chemistry not fully specified)”: the “ability … compared to wildtype iNA (E3-45)” value in data set [1] (PC-3, in words) is listed as “ability to internalize equally”. Also, in data set [1] (setting [8]), the “Fold increase (mean fluorescence intensity / unstained cells)” value worked out at 4.7 and the “Mean (mean fluorescence intensity)” value is 405.
Regarding “mutant 5: site-directed mutant of E3-45 in a loop portion containing a conserved motif (GGGUGCGGUACUUUCGGGCUUUCGGCUUUAUCAGCCCCUCAGGACG; listed as RNA, further chemistry not given here)”, in data set [1] (setting [8]), the “Fold increase (mean fluorescence intensity / unstained cells)” value is listed as 1.9 and the “Mean (mean fluorescence intensity)” value is reported as 164.
As for “mutant 8: mutant of E3-45 with loop portion mutated to 5′ to 3′ UUUCGAG (GGGUGCGGUACUUUCGGGCUGGCACUUUCGAAAGCCCCUCAGGACG; listed as RNA, chemistry not fully specified)”, the “ability … compared to wildtype iNA (E3-45)” value in data set [1] (PC-3, in words) was “loss of binding and internalization”. Also, in data set [1] (setting [8]), the “Fold increase (mean fluorescence intensity / unstained cells)” value amounted to 1.5 and the “Mean (mean fluorescence intensity)” value was found to be 130.
“mutant 6: site-directed mutant of E3-45 in a loop portion containing a conserved motif (GGGUGCGGUACUUUCGGGCUUUCGGCCCCAUCAGCCCCUCAGGACG; listed as RNA, further chemistry not given here)”: in data set [1] (setting [8]), the “Fold increase (mean fluorescence intensity / unstained cells)” value stood at 1.9 and the “Mean (mean fluorescence intensity)” value amounted to 167.
For the molecule “mutant 4: mutant of E3-45 with the conserved motif UUUCGG mutated in a loop portion (GGGUGCGGUACUUUCGGGCUUUCAAAAACAUCAGCCCCUCAGGACG; aptamer; listed as RNA, chemistry not fully specified)”, the “ability … compared to wildtype iNA (E3-45)” value in data set [1] (PC-3, in words) is “loss of the ability to bind and internalize”. In data set [1] (setting [8]), the “Fold increase (mean fluorescence intensity / unstained cells)” value worked out at 2.0 and the “Mean (mean fluorescence intensity)” value worked out at 176.
“GGGUGCGGUACUUUCGGGCUUUCGGCAACAUCAGCCCCUCAGGACG (rGrGrGfUrGfCrGrGfUrAfCfUfUfUfCrGrGrGfCfUfUfUfCrGrGfCrArAfCrAfUfCrArGfCfCfCfCfUfCrArGrGrAfCrG; aptamer; Alexa 647 label attached, position not given here, further chemistry not fully specified) [E3-45, truncation of iNA E3, 45 bases; wildtype for mutants 1-8]”: the “Fold increase (mean fluorescence intensity / unstained cells)” value in data set [1] (setting [7]) was 8.6; in data set [1] (setting [8]) it was 5.4. The “Mean (mean fluorescence intensity)” value is 690 in data set [1] (setting [7]) and 470 in data set [1] (setting [8]).
For the molecule “mutant 2: mutant of E3-45 with the conserved motif UUUCGG mutated in a loop portion (GGGUGCGGUACUAAAGGGCUUUCGGCAACAUCAGCCCAAAAGGACG; aptamer; listed as RNA, chemistry not fully specified)”, the “ability … compared to wildtype iNA (E3-45)” value in data set [1] (PC-3, in words) was “loss of the ability to bind and internalize”. In data set [1] (setting [8]), the “Fold increase (mean fluorescence intensity / unstained cells)” value turned out to be 1.5 and the “Mean (mean fluorescence intensity)” value amounted to 127.
As to “mutant 7: site-directed mutant of E3-45 in a loop portion containing a conserved motif (GGGUGCGGUACUUUCGGGCUUUCGGCAACUAUAGCCCCUCAGGACG; listed as RNA, further chemistry not given here)”, in data set [1] (setting [8]), the “Fold increase (mean fluorescence intensity / unstained cells)” value came to 1.8 and the “Mean (mean fluorescence intensity)” value was 153.

B1: D11: RNA iNA clone from Round 14 toggle selection, variable region SEQ ID NO:20 UCCCCGGAUUUCGGAUACGAUCCCUCAUCCCUUGACCGCA, 2′ fluoro pyrimidines (nucleic acid)
chain: rGrGrGrArGrGrAfCrGrAfUrGfCrGrGfUfCfCfCfCrGrGrAfUfUfUfCrGrGrAfUrAfCrGrAfUfCfCfCfUfCrAfUfCfCfCfUfUrGrAfCfCrGfCrArAfUfUfUfCfUfCfCfUrAfCfUrGrGrGrAfUrArGrGfUrGrGrAfUfUrAfU
modifications: Alexa 647 attached for internalization assay, further chemistry not fully specified
In the case of B1, the Fold increase in data set [2] was 3.2; in data set [3] it was 19.0; in data set [4], 2.7; in data set [5], 11.7; in data set [6] it was 11.4; in data set [1] (Table 9, PC3, malignant) it was 5.8. For the same molecule, the “internalization into cells (conclusion from Table 5)” value in data set [1] (PC-3, in words) was “mediate internalization into cells”. For the same molecule, in data set [1] (Table 5, 200 nM Alexa 647-modified clone, 2 hours @ 37° C., PC-3), the “Fold Increase (mean fluorescence of clone / unstained cells)” value is 5.8. The “Mean (mean fluorescence)” value in data set [1] (Table 5, 200 nM Alexa 647-modified clone, 2 hours @ 37° C., flow cytometry, PC-3) is 460.

B2: GGGAGGACGAUGCGGUACUUUCGGGCUUUCGGCAACAUCAGCCCCUCAGGACGCAAUUUCUC (nucleic acid)
chain: rGrGrGrArGrGrAfCrGrAfUrGfCrGrGfUrAfCfUfUfUfCrGrGrGfCfUfUfUfCrGrGfCrArAfCrAfUfCrArGfCfCfCfCfUfCrArGrGrAfCrGfCrArAfUfUfUfCfUfC
modifications: Alexa 647 label attached, position not given here, further chemistry not fully specified
notes: truncation of iNA E3, 62 bases
On to B2, for which, in data set [1] (setting [7]), the “Fold increase (mean fluorescence intensity / unstained cells)” value turned out to be 10.7 and the “Mean (mean fluorescence intensity)” value was found to be 858.
